Values of other authors, collected in patent US20020165233A1, “Quinoxaline containing medicaments for post exposure prophylaxis of an HIV infection” (priority 1999, published 2002).

Experiments:
[1] = tested on: HIV-1; conditions: inhibitor given 1 hr before challenge, continued 20-30 weeks post challenge; cited from earlier work
[2] = tested on: SIV; conditions: administration 48 h before, 4 h after and 24 h after virus inoculation for 4 weeks; observed 56 weeks; cited from earlier work
[3] = tested on: RT-SHIV; conditions: RT-SHIV infected rhesus monkeys; cited from earlier work
[4] = tested on: HIV; conditions: prophylaxis with only zidovudine; case-control study; cited from earlier work
[5] = tested on: HIV; conditions: cited from earlier work

CCc1cc(CCc2nc3ccccc3o2)c(=O)[nH]c1C [L-696,229]
outcome of prophylaxis in treated animals [1]: developed delayed infections

C[C@H](Cn1cnc2c(N)ncnc21)OCP(=O)(O)O [PMPA]
protection against SIV infection [2]: full protection | effect of post exposure prophylaxis (PEP) [3]: vaccination effect protecting the animals against wild-type challenge

Cc1cn([C@H]2C[C@H](N=[N+]=[N-])[C@@H](CO)O2)c(=O)[nH]c1=O [zidovudine]
protective effect of prophylaxis [4]: 80% | suppression (change in viremia) ([5]; after 7 days of treatment at 1000 mg per day (Loveday et al)): 1 log | mean initial suppression ([5]; conventionally used antiviral agents given alone): ≤ 1 log
